Values of other authors, collected in patent US20220184030A1, “N-Phenylacetyl-L-prolylglycine ethyl ester compositions and methods for using the same” (priority 2020, published 2022).
Where two headings read alike, the source gives them in different places. Residues, ends and D or L forms follow the SMILES beside them. *: point of attachment. PhAc = O=C(Cc1ccccc1)*

What was measured:
[1] = not given; remark: listed apart in the source
[2] = users

Row | Structure (SMILES) | effective dose relative to the effective dose of piracetam (versus piracetam) | effective dose compared with racetams (in words) (versus some racetams, such as piracetam) | side effects ([1]; healthy human subjects, compared with piracetam) | tolerance or addiction to the compound [2] | tolerance to the nootropic effects [2] | side effects ([1]; humans who consume effective doses)
1 | CCOC(=O)CNC(=O)[C@@H]1CCCN1C(=O)Cc1ccccc1 [noopept, N-Phenylacetyl-L-prolylglycine ethyl ester] (PhAc-Pro-Gly-OEt) | over 50 times smaller in mass | smaller effective dose than some racetams | fewer side effects | neither noopept nor CBD has been shown to cause the user to become tolerant or addicted | generally do not develop a tolerance | 
2 | C=C(C)[C@@H]1CCC(C)=C[C@H]1c1c(O)cc(CCCCC)cc1O [CBD, cannabidiol] |  |  |  | neither noopept nor CBD has been shown to cause the user to become tolerant or addicted | generally do not develop a tolerance | generally does not cause significant side effects
